Earlier results, collected in US20100172957A1, “EFLUCIMIBE MEDICAMENTS FOR PREVENTING/TREATING A DISEASE DUE TO SEBACEOUS GLAND DYSFUNCTION IN HUMANS OR ANIMALS” (GALDERMA RESEARCH & DEVELOPMENT, priority 2007, published 2010).

Test system: sebum production
Conditions: current treatment, background statement

CC1=C(/C=C/C(C)=C/C=C/C(C)=C\C(=O)O)C(C)(C)CCC1 [isotretinoin]
decrease of sebum production: ~90%
